From paper PMC5146859, “Phase 1/2 study of pacritinib, a next generation JAK2/FLT3 inhibitor, in myelofibrosis or other myeloid malignancies” (Journal of Hematology & Oncology, 2016)

Test system: patients with advanced myeloid malignancies
Assay: Phase 1 safety: adverse events (NCIC-CTCAE version 3.0)
Assay type: in vivo, human
Experimental: At screening/baseline, patients underwent a medical history, physical examination, vital sign assessment, ECOG PS assessment, electrocardiogram, and assessment of hematologic parameters and blood chemistry. Hematology/blood chemistry, physical examinations, and vital sign assessments were performed throughout treatment. Toxicity was assessed using the National Cancer Institute Common Terminology Criteria for Adverse Events (NCIC-CTCAE), version 3.0, with relationship to treatment assigned by the investigator and were recorded from the first dose of pacritinib until 30 days after the last dose. Bone marrow biopsy and/or aspirate samples were drawn at baseline, on day 1 of cycle 4 and cycle 10, as clinically indicated, and at the termination visit. Disease response and progression were determined using the relevant International Working Group (IWG) criteria.
The efficacy-evaluable population included those patients with a baseline and corresponding follow-up value. The safety population included all enrolled patients who received ≥1 dose of pacritinib.

SMILES: C1=C/COCc2cc(ccc2OCCN2CCCC2)Nc2nccc(n2)-c2cccc(c2)COC/1 [pacritinib, 11-(2-pyrrolidin-1-yl-ethoxy)-14,19-dioxa-5,7,26-triaza-tetracyclo[19.3.1.1(2,6). 1(8,12)]heptacosa-1(25),2(26),3,5,8,10,12(27),16,21,23-decaene]
- Grade 4 gastrointestinal AEs (phase 1): No grade 4 gastrointestinal AEs occurred
- Relation of fatal AEs to treatment (phase 1): None of the AEs were considered to be related to treatment
- Treatment-emergent AE: Abdominal distension (phase 1, 100 mg, n = 3): 0 n (%)
- Treatment-emergent AE: Abdominal pain (phase 1, 100 mg, n = 3): 1 (33.3) n (%)
- Treatment-emergent AE: Anemia (phase 1, 100 mg, n = 3): 0 n (%)
- Treatment-emergent AE: Any AE (phase 1, 100 mg, n = 3): 3 (100.0) n (%)
- Treatment-emergent AE: Asthenia (phase 1, 100 mg, n = 3): 2 (66.7) n (%)
- Treatment-emergent AE: Back pain (phase 1, 100 mg, n = 3): 1 (33.3) n (%)
- Treatment-emergent AE: Cardiac murmur (phase 1, 100 mg, n = 3): 1 (33.3) n (%)
- Treatment-emergent AE: Chills (phase 1, 100 mg, n = 3): 0 n (%)
- Treatment-emergent AE: Constipation (phase 1, 100 mg, n = 3): 2 (66.7) n (%)
- Treatment-emergent AE: Cough (phase 1, 100 mg, n = 3): 1 (33.3) n (%)
- Treatment-emergent AE: Decreased appetite (phase 1, 100 mg, n = 3): 2 (66.7) n (%)
- Treatment-emergent AE: Dehydration (phase 1, 100 mg, n = 3): 0 n (%)
- Treatment-emergent AE: Diarrhea (phase 1, 100 mg, n = 3): 2 (66.7) n (%)
- Treatment-emergent AE: Dizziness (phase 1, 100 mg, n = 3): 0 n (%)
- Treatment-emergent AE: Dyspnea (phase 1, 100 mg, n = 3): 2 (66.7) n (%)
- Treatment-emergent AE: Edema peripheral (phase 1, 100 mg, n = 3): 2 (66.7) n (%)
- Treatment-emergent AE: Epistaxis (phase 1, 100 mg, n = 3): 2 (66.7) n (%)
- Treatment-emergent AE: Fatigue (phase 1, 100 mg, n = 3): 1 (33.3) n (%)
- Treatment-emergent AE: Hyperbilirubinemia (phase 1, 100 mg, n = 3): 1 (33.3) n (%)
- Treatment-emergent AE: Hyperuricemia (phase 1, 100 mg, n = 3): 1 (33.3) n (%)
- Treatment-emergent AE: Insomnia (phase 1, 100 mg, n = 3): 1 (33.3) n (%)
- Treatment-emergent AE: Nausea (phase 1, 100 mg, n = 3): 0 n (%)
- Treatment-emergent AE: Neutropenia (phase 1, 100 mg, n = 3): 1 (33.3) n (%)
- Treatment-emergent AE: Night sweats (phase 1, 100 mg, n = 3): 1 (33.3) n (%)
- Treatment-emergent AE: Pain in extremity (phase 1, 100 mg, n = 3): 3 (100.0) n (%)
- Treatment-emergent AE: Petechiae (phase 1, 100 mg, n = 3): 2 (66.7) n (%)
- Treatment-emergent AE: Pyrexia (phase 1, 100 mg, n = 3): 1 (33.3) n (%)
- Treatment-emergent AE: Skin lesion (phase 1, 100 mg, n = 3): 0 n (%)
- Treatment-emergent AE: Thrombocytopenia (phase 1, 100 mg, n = 3): 1 (33.3) n (%)
- Treatment-emergent AE: Upper respiratory tract infection (phase 1, 100 mg, n = 3): 0 n (%)
- Treatment-emergent AE: Vomiting (phase 1, 100 mg, n = 3): 0 n (%)
- Treatment-emergent AE: Abdominal distension (phase 1, 150 mg, n = 6): 0 n (%)
- Treatment-emergent AE: Abdominal pain (phase 1, 150 mg, n = 6): 1 (16.7) n (%)
- Treatment-emergent AE: Anemia (phase 1, 150 mg, n = 6): 1 (16.7) n (%)
- Treatment-emergent AE: Any AE (phase 1, 150 mg, n = 6): 6 (100.0) n (%)
- Treatment-emergent AE: Asthenia (phase 1, 150 mg, n = 6): 2 (33.3) n (%)
- Treatment-emergent AE: Back pain (phase 1, 150 mg, n = 6): 2 (33.3) n (%)
- Treatment-emergent AE: Cardiac murmur (phase 1, 150 mg, n = 6): 0 n (%)
- Treatment-emergent AE: Chills (phase 1, 150 mg, n = 6): 2 (33.3) n (%)
- Treatment-emergent AE: Constipation (phase 1, 150 mg, n = 6): 2 (33.3) n (%)
- Treatment-emergent AE: Cough (phase 1, 150 mg, n = 6): 1 (16.7) n (%)
- Treatment-emergent AE: Decreased appetite (phase 1, 150 mg, n = 6): 2 (33.3) n (%)
- Treatment-emergent AE: Dehydration (phase 1, 150 mg, n = 6): 1 (16.7) n (%)
- Treatment-emergent AE: Diarrhea (phase 1, 150 mg, n = 6): 2 (33.3) n (%)
- Treatment-emergent AE: Dizziness (phase 1, 150 mg, n = 6): 0 n (%)
- Treatment-emergent AE: Dyspnea (phase 1, 150 mg, n = 6): 1 (16.7) n (%)
- Treatment-emergent AE: Edema peripheral (phase 1, 150 mg, n = 6): 2 (33.3) n (%)
- Treatment-emergent AE: Epistaxis (phase 1, 150 mg, n = 6): 1 (16.7) n (%)
- Treatment-emergent AE: Fatigue (phase 1, 150 mg, n = 6): 1 (16.7) n (%)
- Treatment-emergent AE: Hyperbilirubinemia (phase 1, 150 mg, n = 6): 1 (16.7) n (%)
- Treatment-emergent AE: Hyperuricemia (phase 1, 150 mg, n = 6): 1 (16.7) n (%)
- Treatment-emergent AE: Insomnia (phase 1, 150 mg, n = 6): 1 (16.7) n (%)
- Treatment-emergent AE: Nausea (phase 1, 150 mg, n = 6): 1 (16.7) n (%)
- Treatment-emergent AE: Neutropenia (phase 1, 150 mg, n = 6): 2 (33.3) n (%)
- Treatment-emergent AE: Night sweats (phase 1, 150 mg, n = 6): 0 n (%)
- Treatment-emergent AE: Pain in extremity (phase 1, 150 mg, n = 6): 0 n (%)
- Treatment-emergent AE: Petechiae (phase 1, 150 mg, n = 6): 2 (33.3) n (%)
- Treatment-emergent AE: Pyrexia (phase 1, 150 mg, n = 6): 2 (33.3) n (%)
- Treatment-emergent AE: Skin lesion (phase 1, 150 mg, n = 6): 4 (66.7) n (%)
- Treatment-emergent AE: Thrombocytopenia (phase 1, 150 mg, n = 6): 2 (33.3) n (%)
- Treatment-emergent AE: Upper respiratory tract infection (phase 1, 150 mg, n = 6): 2 (33.3) n (%)
- Treatment-emergent AE: Vomiting (phase 1, 150 mg, n = 6): 1 (16.7) n (%)
- Treatment-emergent AE: Abdominal distension (phase 1, 200 mg, n = 9): 2 (22.2) n (%)
- Treatment-emergent AE: Abdominal pain (phase 1, 200 mg, n = 9): 1 (11.1) n (%)
- Treatment-emergent AE: Anemia (phase 1, 200 mg, n = 9): 1 (11.1) n (%)
- Treatment-emergent AE: Any AE (phase 1, 200 mg, n = 9): 9 (100.0) n (%)
- Treatment-emergent AE: Asthenia (phase 1, 200 mg, n = 9): 1 (11.1) n (%)
- Treatment-emergent AE: Back pain (phase 1, 200 mg, n = 9): 0 n (%)
- Treatment-emergent AE: Cardiac murmur (phase 1, 200 mg, n = 9): 1 (11.1) n (%)
- Treatment-emergent AE: Chills (phase 1, 200 mg, n = 9): 0 n (%)
- Treatment-emergent AE: Constipation (phase 1, 200 mg, n = 9): 2 (22.2) n (%)
- Treatment-emergent AE: Cough (phase 1, 200 mg, n = 9): 1 (11.1) n (%)
- Treatment-emergent AE: Decreased appetite (phase 1, 200 mg, n = 9): 0 n (%)
